Measured values published in patent US20200024278A1, “COMPOSITION COMPRISING ANTIBIOTIC COMPOUND AND AN HETEROCYCLIC COMPOUND AND THEIR USE IN PREVENTING OR TREATING BACTERIAL INFECTIONS” (MUTABILIS, priority 2016, published 2020).

Legend:
KPN BAA-1898 = assay: MIC, broth microdilution (CLSI), substance alone or ATB combined with compound at 4 or 8 μg/mL; assay type: cell-based, K. pneumoniae; settings: Klebsiella pneumoniae, BAA1898; substance alone; KPN BAA-1898; read-out: MIC
Description: (§1) Compounds of the present invention were assessed against genotyped bacterial strains alone or in combination with an antibacterial. In the assays, MICs of said compounds or combination of antibiotics with fixed concentrations of said compounds (4 or 8 μg/mL) were determined by the broth microdilution method according to the Clinical Laboratory Standards Institute (CLSI-M7-A7). Briefly, compounds alone according to the invention were prepared in DMSO and spotted (2 μL each) on sterile polystyrene plates (Corning, 3788). Combinations of compounds and antibiotics dilutions were prepared in DMSO and spotted (1 μL each) on sterile polystyrene plates (Corning, 3788). Log phase bacterial suspensions were adjusted to a final density of 5·10^5 CFU/mL in cation-adjusted Mueller-Hinton broth (ca-MHB; Becton-Dickinson and Company) and added to each well (98 μL). Assays including Fosfomycin were supplemented with 25 μg/ml of Glucose-6-phosphate. Microplates were incubated for 16-20 h at 35° C. in ambient air. The MIC of the compounds was defined as the lowest concentration of said compounds that prevented bacterial growth as read by visual inspection. The MIC of ATB at each compound concentration was defined as the lowest concentration of ATB that prevented bacterial growth as read by visual inspection.

KPN UFR42 = assay: as above; assay type: cell-based, K. pneumoniae; settings: Klebsiella pneumoniae; substance alone; KPN UFR42; read-out: MIC
Description: as §1

ECL P99 [1] = assay: Fractional Inhibitory Concentration Index, checkerboard assay; assay type: cell-based, E. cloacae
Description: (§2) Method 2: Determination of the Fractional Inhibitory Concentration Index
(§3) Serial 2-fold dilutions of each antibiotic tested were prepared in ca-MHB and mixed in each well of a 96-well microtiter plate so that each row (and column) contained a fixed amount of one agent and increasing amounts of the second agent. The range of drug concentrations used in the checkerboard analysis was such that the dilution range encompassed the MIC for each drug used in the analysis. Broth microdilution plates were inoculated with each strain (Table 3) to yield 5.10^5 CFU/mL in a 100 μL final volume and incubated for 18 h at 35° C. in ambient air. Assays including Fosfomycin were supplemented with 25 μg/ml of Glucose-6-phosphate. MICs were determined after overnight incubation, and the fractional inhibitory concentration (FIC) index was calculated for each well. The FIC index (FICI) was calculated for each combination according to the equation FICI=FICa+FICb=(MIC of drug A in combination/MIC of drug A alone)+(MIC of drug B in combination/MIC of drug B alone). The FICI was interpreted as follows: synergy, FICI […]; indifference, 0.5<FIC<4; and antagonism, FICI>4. The checkerboard assays were performed in duplicate.

ECL P99 [2] = assay: MIC, broth microdilution (CLSI), substance alone or ATB combined with compound at 4 or 8 μg/mL; assay type: cell-based, E. cloacae; settings: Enterobacter cloacae; substance alone; ECL P99; read-out: MIC
How it was run: (§4)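 Each strain received 5·10^5 CFU/mL of log-phase cells in ca-MHB over DMSO-spotted compound or compound-antibiotic combinations. After 16-20 h at 35° C, growth was scored visually.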

SPN 49619 = assay: as above; assay type: cell-based, S. pneumoniae; settings: SPN 49619; for MIC ATB combined with compound: compound @4 μg/ml
How it was run: as §4

PAE UFR48 [3] = assay: as above; assay type: cell-based, P. aeruginosa; settings: PAE UFR48; for MIC ATB combined with compound: compound @4 μg/ml
How it was run: as §4

PAE UFR90 [4] = assay: as above; assay type: cell-based, P. aeruginosa; settings: PAE UFR90; for MIC ATB combined with compound: compound @4 μg/ml
How it was run: as §4

PAE 105250 = assay: as above; assay type: cell-based, P. aeruginosa; settings: PAE 105250; for MIC ATB combined with compound: compound @4 μg/ml
How it was run: as §4

SAU 29213 = assay: as above; assay type: cell-based, S. aureus; settings: for MIC ATB combined with compound: compound @4 μg/ml, SAU 29213
How it was run: as §4

KPN UFR68 = assay: Fractional Inhibitory Concentration Index, checkerboard assay; assay type: cell-based, K. pneumoniae
Description: as §2, §3

ECO 190317 [5] = assay: as above; assay type: cell-based, E. coli
Description: as §2, §3

PAE UFR48 [6] = assay: as above; assay type: cell-based, P. aeruginosa
Description: as §2, §3

PAE UFR90 [7] = assay: as above; assay type: cell-based, P. aeruginosa
Description: as §2, §3

ECO 190317 [8] = assay: MIC, broth microdilution (CLSI), substance alone or ATB combined with compound at 4 or 8 μg/mL; assay type: cell-based, E. coli; settings: Escherichia coli; substance alone; ECO 190317; read-out: MIC
How it was run: as §4

ECO UFR39 = assay: as above; assay type: cell-based, E. coli; settings: Escherichia coli; substance alone; ECO UFR39; read-out: MIC
How it was run: as §4

[9] = Pseudomonas aeruginosa, substance alone, read-out: MIC

NC[C@@H]1C(c2ncco2)=C[C@@H]2CN1C(=O)N2OS(=O)(=O)[O-].O=C(O)C(F)(F)F.[Na+] [Example 5, Sodium and 2,2,2-trifluoroacetate [(2S,5R)-2-(azaniumylmethyl)-7-oxo-3-oxazol-2-yl-1,6-diazabicyclo[3.2.1]oct-3-en-6-yl] Sulfate]
MIC (KPN BAA-1898): 16 µg/mL | MIC (KPN UFR42): 32 µg/mL | FIC index min (ECL P99 [1]; compound +ATM): 0.23 | FIC index min (ECL P99 [1]; compound +FEP): 0.23 | FIC index min (ECL P99 [1]; compound +FOS): 0.16 | FIC index min (ECL P99 [1]; compound +MEM): 0.63 | FIC index min (ECL P99 [1]; compound +PIP): 0.32 | MIC (ECL P99 [2]): ≤ 0.016 µg/mL | MIC ATB combined with compound (SPN 49619; ATB ATM): >32 µg/mL | MIC ATB combined with compound (SPN 49619; ATB FEP): 0.063 µg/mL | MIC ATB combined with compound (SPN 49619; ATB FOS): 16 µg/mL | MIC ATB combined with compound (SPN 49619; ATB MEM): 0.063 µg/mL | MIC ATB combined with compound (SPN 49619; ATB PIP): 0.5 µg/mL | MIC (SPN 49619; Streptococcus pneumoniae, substance alone, read-out: MIC): > 32 µg/mL | MIC ATB combined with compound (PAE UFR48 [3]; ATB ATM): <0.031 µg/mL | MIC ATB combined with compound (PAE UFR48 [3]; ATB FEP): <0.031 µg/mL | MIC ATB combined with compound (PAE UFR48 [3]; ATB FOS): 4 µg/mL | MIC ATB combined with compound (PAE UFR48 [3]; ATB MEM): <0.031 µg/mL | MIC ATB combined with compound (PAE UFR48 [3]; ATB PIP): <0.031 µg/mL | MIC (PAE UFR48 [3]; [9]): 2 µg/mL | MIC ATB combined with compound (PAE UFR90 [4]; ATB ATM): <0.031 µg/mL | MIC ATB combined with compound (PAE UFR90 [4]; ATB FEP): <0.031 µg/mL | MIC ATB combined with compound (PAE UFR90 [4]; ATB FOS): <0.125 µg/mL | MIC ATB combined with compound (PAE UFR90 [4]; ATB MEM): <0.031 µg/mL | MIC ATB combined with compound (PAE UFR90 [4]; ATB PIP): <0.031 µg/mL | MIC (PAE UFR90 [4]; [9]): 0.25 µg/mL | MIC ATB combined with compound (PAE 105250; ATB ATM): <0.031 µg/mL | MIC ATB combined with compound (PAE 105250; ATB FEP): <0.031 µg/mL | MIC ATB combined with compound (PAE 105250; ATB FOS): 16 µg/mL | MIC ATB combined with compound (PAE 105250; ATB MEM): <0.031 µg/mL | MIC ATB combined with compound (PAE 105250; ATB PIP): <0.031 µg/mL | MIC (PAE 105250; [9]): 4 µg/mL | MIC ATB combined with compound (SAU 29213; ATB ATM): >32 µg/mL | MIC ATB combined with compound (SAU 29213; ATB FEP): 2 µg/mL | MIC ATB combined with compound (SAU 29213; ATB FOS): 0.5 µg/mL | MIC ATB combined with compound (SAU 29213; ATB MEM): <=0.031 μg/mL | MIC ATB combined with compound (SAU 29213; ATB PIP): 2 µg/mL | MIC (SAU 29213; Staphylococcus aureus, substance alone, SAU 29213 (MSSA 29213), read-out: MIC): > 32 µg/mL | FIC index min (KPN UFR68; compound +ATM): ≤0.008 | FIC index min (KPN UFR68; compound +FEP): ≤0.0098 | FIC index min (KPN UFR68; compound +FOS): 0.203 | FIC index min (KPN UFR68; compound +MEM): 0.020 | FIC index min (KPN UFR68; compound +PIP): ≤0.035 | FIC index min (ECO 190317 [5]; compound +ATM): 0.52 | FIC index min (ECO 190317 [5]; compound +FEP): 0.25 | FIC index min (ECO 190317 [5]; compound +FOS): 0.66 | FIC index min (ECO 190317 [5]; compound +MEM): 0.76 | FIC index min (ECO 190317 [5]; compound +PIP): ≤0.56 | FIC index min (PAE UFR48 [6]; compound +ATM): 0.34 | FIC index min (PAE UFR48 [6]; compound +FEP): 0.33 | FIC index min (PAE UFR48 [6]; compound +FOS): 0.88 | FIC index min (PAE UFR48 [6]; compound +MEM): 0.63 | FIC index min (PAE UFR48 [6]; compound +PIP): 0.52 | FIC index min (PAE UFR90 [7]; compound +ATM): 0.76 | FIC index min (PAE UFR90 [7]; compound +FEP): 0.69 | FIC index min (PAE UFR90 [7]; compound +FOS): 0.69 | FIC index min (PAE UFR90 [7]; compound +MEM): 0.81 | FIC index min (PAE UFR90 [7]; compound +PIP): 0.56 | MIC (ECO 190317 [8]): ≤ 0.016 µg/mL | MIC (ECO UFR39): ≤ 0.016 µg/mL
